Where a SMILES comes first, the peptide text is derived from it. Bridges are numbered along the chain shown (N, C = ends). [ ]: non-standard residue; d: D form. The star is where a group is joined. hPhe(3,5-F2-4-CF3) = N[C@@H](CCc1cc(F)c(C(F)(F)F)c(F)c1)C(=O)O; NPrPhe(4-CF3) = CCCN[C@@H](Cc1ccc(C(F)(F)F)cc1)C(=O)O; NMeGly(cPent) = CN[C@H](C(=O)O)C1CCCC1; NMeD = CN[C@@H](CC(=O)O)C(=O)O; NMeL = CN[C@@H](CC(C)C)C(=O)O; αMeS = C[C@](N)(CO)C(=O)O; Sar = CNCC(=O)O; tBu = CC(C)(C)*
Tests used:
[1] = target: GDP-bound NRAS wild-type protein (Homo sapiens, UniProt P01111); experiment: Binding to NRAS by surface plasmon resonance (SPR), Single Cycle Kinetics
Sequence of GDP-bound NRAS wild-type protein (P01111 whole entry): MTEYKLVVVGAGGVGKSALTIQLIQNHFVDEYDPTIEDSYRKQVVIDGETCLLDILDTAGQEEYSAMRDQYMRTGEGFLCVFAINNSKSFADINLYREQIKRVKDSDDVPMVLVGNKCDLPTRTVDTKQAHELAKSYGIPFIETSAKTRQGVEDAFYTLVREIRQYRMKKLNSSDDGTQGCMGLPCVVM

[2] = target: GDP-bound HRAS wild-type protein (Homo sapiens, UniProt P01112); experiment: Binding to HRAS by surface plasmon resonance (SPR), Single Cycle Kinetics
Sequence of GDP-bound HRAS wild-type protein (P01112 whole entry): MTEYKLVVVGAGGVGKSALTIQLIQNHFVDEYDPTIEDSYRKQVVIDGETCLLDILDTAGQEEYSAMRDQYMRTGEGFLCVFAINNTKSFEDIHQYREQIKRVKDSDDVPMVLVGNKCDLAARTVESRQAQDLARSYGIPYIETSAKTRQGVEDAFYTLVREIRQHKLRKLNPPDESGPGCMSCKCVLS

[3] = SPR, GDP-bound wild-type proteins

Structure (SMILES): CCC[C@H]1C(=O)N[C@@H]([C@@H](C)CC)C(=O)N2C[C@@H](OC)C[C@H]2C(=O)N(C)[C@H]2C/C=C\CCN(C2=O)[C@@H](Cc2ccc(C)cc2)C(=O)N(C)CC(=O)N[C@@H](CCc2ccc(C(F)(F)F)c(OC)c2)C(=O)N2C[C@H](OCC)C[C@H]2C(=O)NC2(CC(C)(C)C2)C(=O)N(C)[C@@H](C2CCCC2)C(=O)N(C)[C@H](C(=O)N(C)C)CC(=O)N1C [PP2557]
- NRAS/KRAS (ratio of KD value with respect to GDP-bound NRAS wild-type protein to KD value with respect to KRAS) ([1]; class symbols): A (a compound having 10 or more and less than 20 is denoted as A)
- HRAS/KRAS (ratio of KD value with respect to GDP-bound HRAS wild-type protein to KD value with respect to KRAS) ([2]; class symbols): B (a compound having 3 or more and less than 10 is denoted as B)

Structure (SMILES): CCC[C@H]1C(=O)N[C@@H]([C@@H](C)CC)C(=O)N(C)CC(=O)N(C)[C@H]2C/C=C\CCN(C2=O)[C@@H](Cc2ccc(C(F)(F)F)cc2)C(=O)N(C)CC(=O)N[C@@H](CCc2ccc(C(F)(F)F)c(Cl)c2)C(=O)N2CC3(CC3)C[C@H]2C(=O)NC2(CC(C)(C)C2)C(=O)N(C)[C@@H]([C@@H](C)CC)C(=O)N(C)[C@H](C(=O)N(C)C)CC(=O)N1C [PP2983]
- NRAS/KRAS (ratio of KD value with respect to GDP-bound NRAS wild-type protein to KD value with respect to KRAS) [1, 3]: AA (a compound having 20 or more is denoted as AA)
- HRAS/KRAS (ratio of KD value with respect to GDP-bound HRAS wild-type protein to KD value with respect to KRAS) [2, 3]: A (a compound having 10 or more and less than 20 is denoted as A)

Structure (SMILES): CCCN1C(=O)CN(C)C(=O)CN(C)C(=O)[C@H]([C@@H](C)CC)NC(=O)[C@H](CC(C)C)N(C)C(=O)C[C@@H](C(=O)N(C)C)N(C)C(=O)[C@H](C2CCCC2)N(C)C(=O)[C@](C)(COC(C)(C)C)NC(=O)[C@@H]2CCCN2C(=O)[C@H](CCc2cc(F)c(C(F)(F)F)c(F)c2)NC(=O)CN(C)C(=O)[C@@H]1Cc1ccc(C(F)(F)F)cc1 [PP0743] ([NMeL]I[Sar][Sar][NPrPhe(4-CF3)][Sar][hPhe(3,5-F2-4-CF3)]P[αMeS](tBu)[NMeGly(cPent)][NMeD]-NMe2; lactam N-11)
- NRAS/KRAS (ratio of KD value with respect to GDP-bound NRAS wild-type protein to KD value with respect to KRAS) ([1]; SPR): B (a compound having 3 or more and less than 10 is denoted as B)
- HRAS/KRAS (ratio of KD value with respect to GDP-bound HRAS wild-type protein to KD value with respect to KRAS) ([2]; SPR): C (A compound having a KD ratio of 0.1 or more and less than 3 is denoted as C)

Structure (SMILES): CCC[C@H]1C(=O)N[C@@H]([C@@H](C)CC)C(=O)N(C)CC(=O)N(C)[C@H]2C/C=C\CCN(C2=O)[C@@H](Cc2ccc(C(F)(F)F)cc2)C(=O)N(C)CC(=O)N[C@@H](CCc2ccc3ccn(C)c3c2)C(=O)N2C[C@H](OCC)C[C@H]2C(=O)NC2(CC(C)(C)C2)C(=O)N(C)[C@@H](C2CCCC2)C(=O)N(C)[C@H](C(=O)N(C)C)CC(=O)N1C [PP2901]
- NRAS/KRAS (ratio of KD value with respect to GDP-bound NRAS wild-type protein to KD value with respect to KRAS) ([1]; class symbols): A (a compound having 10 or more and less than 20 is denoted as A)
- HRAS/KRAS (ratio of KD value with respect to GDP-bound HRAS wild-type protein to KD value with respect to KRAS) ([2]; class symbols): A (a compound having 10 or more and less than 20 is denoted as A)

Structure (SMILES): CCC[C@H]1C(=O)N[C@@H](C2CCCC2)C(=O)N(C)CC(=O)N(C)[C@H]2C/C=C\CCN(C2=O)[C@@H](Cc2ccc(C)cc2)C(=O)N(C)CC(=O)N[C@@H](CCc2cc(F)c(C(F)(F)F)c(F)c2)C(=O)N2C[C@H](OCC)C[C@H]2C(=O)NC2(CC(C)(C)C2)C(=O)N(C)[C@@H](CC(C)(C)C)C(=O)N(C)[C@H](C(=O)N(C)C)CC(=O)N1C [PP2989]
- NRAS/KRAS (ratio of KD value with respect to GDP-bound NRAS wild-type protein to KD value with respect to KRAS) [1, 3]: AA (a compound having 20 or more is denoted as AA)
- HRAS/KRAS (ratio of KD value with respect to GDP-bound HRAS wild-type protein to KD value with respect to KRAS) [2, 3]: A (a compound having 10 or more and less than 20 is denoted as A)

Structure (SMILES): CCO[C@@H]1C[C@H]2C(=O)NC3(CCC3)C(=O)N(C)[C@@H](C3CCCC3)C(=O)N(C)[C@H](C(=O)N(C)CC)CC(=O)N(C)[C@@H](CC3CCC3)C(=O)N[C@@H]([C@@H](C)CC)C(=O)N(C)CC(=O)N(C)[C@H]3C/C=C\CCN(C3=O)[C@@H](Cc3ccc(C(F)(F)F)cc3)C(=O)N(C)CC(=O)N[C@@H](CCc3ccc(C(F)(F)F)c(Cl)c3)C(=O)N2C1 [PP2826]
- NRAS/KRAS (ratio of KD value with respect to GDP-bound NRAS wild-type protein to KD value with respect to KRAS) ([1]; class symbols): A (a compound having 10 or more and less than 20 is denoted as A)
- HRAS/KRAS (ratio of KD value with respect to GDP-bound HRAS wild-type protein to KD value with respect to KRAS) ([2]; class symbols): A (a compound having 10 or more and less than 20 is denoted as A)

Structure (SMILES): CCO[C@@H]1C[C@H]2C(=O)NC3(CCC3)C(=O)N(C)[C@@H](C3CCCC3)C(=O)N(C)[C@H](C(=O)N(C)CC)CC(=O)N(C)[C@@H](C3CCC3)C(=O)N[C@@H]([C@@H](C)CC)C(=O)N(C)CC(=O)N(C)[C@H]3C/C=C\CCN(C3=O)[C@@H](Cc3ccc(C(F)(F)F)cc3)C(=O)N(C)CC(=O)N[C@@H](CCc3cc(F)c(C(F)(F)F)c(F)c3)C(=O)N2C1 [PP1996]
- NRAS/KRAS (ratio of KD value for NRAS to KD value for KRAS) ([1]; KD ratio, GDP-bound NRAS wild-type vs GDP-bound KRAS wild-type, SPR): A (a compound having 10 or more and less than 20 is denoted as A)
- HRAS/KRAS (ratio of KD value for HRAS to KD value for KRAS) ([2]; KD ratio, GDP-bound HRAS wild-type vs GDP-bound KRAS wild-type, SPR): B (a compound having 3 or more and less than 10 is denoted as B)
